Results: patent publication US7919475B2, “Compositions and methods for improving heart function” (The Regents of The University of California, priority 2004, dated 2011)

How the values were obtained:
[1] = test system: neonatal rat cardiomyocytes; test: Indo-1 [Ca2+]i transients in cultured neonatal cardiomyocytes; assay type: cell-based; conditions: for time to achieve a 50% decrease in the calcium transient (T1/2): 5.5 mM glucose supplemented with 8 mM glucosamine or 50 μM PUGNAc, 72 hours; for increase in diastolic calcium decay relative to controls: 5.5 mM glucose with 8 mM glucosamine or 50 μM PUGNAc
Protocol: (§1) Cardiomyocyte Isolation and Culture. Primary cultures of neonatal rat cardiomyocytes were prepared as described previously, see, e.g., Hartong (1996) J. Mol. Cell. Cardiol. 28:2467-2477. Cells were plated onto gelatin-coated culture dishes or laminin-coated glass chamber slides. Plating medium consisted of 4.25:1 DMEM:M199, 10% horse serum, 5% fetal bovine serum, 1% penicillin/streptomycin/fungizone (PSF), and 5.5 mM D-glucose. Cells were allowed to adhere to the plates for 24 hours before changing to basic experimental culture medium (4.5:1 DMEM:M199, 2% fetal bovine serum, 1% PSF, and 100 μM insulin) and supplemented with glucose at either physiological (5.5 mM; normal glucose) or elevated (25 mM; high glucose) concentrations. For some experiments, media was supplemented with 8 mM glucosamine, 40 μM aminoguanidine, 0.5 μg/ml tunicamycin, 50 μM PUGNAc or an osmotic control (20 mM mannitol). In cases where cells were plated at exceptionally high density (5×10^6 per 100 mm plate), the culture medium was changed daily until the cells were harvested.
Construction of adenoviral vectors. The rat cDNA corresponding to the UDP-N-acetylglucosamine:peptide N-acetylglucosaminyl transferase gene (O-GlcNAc transferase; OGT), which encodes the enzyme responsible for the O-linkage of single N-acetylglucosamine molecules to serine/threonine residues (19), and the human cDNA encoding the O-GlcNAcase gene (GCA), the enzyme responsible for removing O-linked N-acetylglucosamine residues (see, e.g., Haltiwanger (1992) J. Biol. Chem. 267:9005-9013). Each cDNA was inserted into the E1 region of an adenoviral vector construct using previously described methods (see, e.g., Gao (2001) J. Biol. Chem. 276:9838-9845). Replication-deficient adenovirus particles containing the target gene or empty vector (SR−) were generated by in vivo recombination in 293 cells and single plaques were isolated and propagated to achieve high titer. Adenoviral particles were CsCl-purified and quantified by plaque titer assay. Myocytes were infected with a multiplicity of infection (MOI) of 25 for all viruses.
Measurement of [Ca^2+]I transients. Indo-1 facilitated measurement of Ca^2+ transients has been described previously, see, e.g., He (1997) J. Clin. Invest 100:380-389). […] Cells were rinsed and incubated for 20 min at RT in appropriate serum-free culture medium containing 1.8 mM CaCl2 prior to making fluorescence measurements to allow for deesterification of the Indo-1/AM. […] Transients were measured from at least 18 cells per slide per treatment. […]
Calcium transients. To determine whether elevated extracellular glucose and increased O-GlcNAcylation would exert an effect on intracellular calcium flux, Indo-1 calcium transients were determined in neonatal rat cardiomyocytes. […]

[2] = test system: nuclear O-GlcNAcylation; test: Nuclear O-GlcNAcylation by Western immunoblot (antibody 110.6) in neonatal cardiomyocytes; assay type: cell-based, rat; conditions: 72 hours; 25 mM glucose; 5.5 mM glucose with 8 mM glucosamine or 50 μM PUGNAc; 25 mM glucose with adenovirus MOI 25
Protocol: Samples of each extract (25-50 μg) were fractionated by SDS-PAGE on precast 4-20% Tris-glycine gels (BioRad) and transferred to nylon membranes. Membranes were blocked overnight, exposed to the O-GlcNAc-specific antibody 110.6 (17) (1:10,000) overnight at 4° C., then exposed for 1 hour to 1:5,000 goat anti-mouse IgM-HRP. Alternatively, membranes were exposed to anti-MEF-2 (1:200) for one hour at RT followed by a one hour exposure to 1:10,000 goat anti-rabbit IgG-HRP. Visualization and quantification was as described above.
Cells were cultured for 72 hours in 5.5 mM glucose (NG) or 25 mM glucose (HG) and supplemented with one of the following: 8 mM glucosamine (NG/GlcN), 50 μM PUGNAc, or adenovirus encoding either OGT or GCA. Adenoviruses were applied at an MOI=25. Nuclear extracts (50 μg) were prepared according to the methods outlines in “Experimental Procedures”, resolved on 4-20% gradient SDS-tricine gels, transferred to nylon membranes and immunoblotted with a monoclonal anti-O-GlcNAc antibody 110.6.

[3] = test system: SERCA2a; test: SERCA2a protein level by Western immunoblot in neonatal cardiomyocytes; assay type: cell-based, rat; conditions: for influence on SERCA2a protein levels: 40 μM aminoguanidine or 0.5 μg/ml tunicamycin, regardless of glucose concentration
Protocol: as §1
Western Immunoblotting. To determine SERCA2a protein levels, myocytes (1×10^6) were washed with phosphate buffered saline (PBS), then extracted with 0.2 ml lysis buffer (20 mM Tris, pH 7.4, 20 mM NaCl, 0.1 mM EDTA, 1% Triton X-100, 0.5% Na-deoxycholate, 1 mM dithiothreitol). Lysates were incubated on ice for 30 min, and cellular debris was pelleted at 10,000×g for 20 min at 4° C. Protein concentration in the supernatant was determined by BioRad protein reagent. 30 μg of protein diluted in extraction buffer and 4× Laemmli sample buffer were loaded without boiling onto pre-cast 4-20% Tris-glycine gels. Separated proteins were transferred to nylon membranes using a Bio-Rad Mini Trans-Blot apparatus and blocked overnight at 4° C. Blots were incubated with a rabbit polyclonal SERCA2a antibody (see, e.g., Hartong (1996) supra) (1:5000) for 1 hour at RT, followed by a 1 hour incubation with a 1:5000 dilution of goat anti-rabbit IgG-HRP conjugated secondary antibody (Amersham). Bands were visualized by reacting with chemiluminescent substrate (NEN) and exposed to film. Protein bands were quantified from scanned images using Scion imaging software (Scion, Frederick, Md.).
SERCA2a in RNA, protein expression and promoter activity. […] FIG. 2 illustrates Northern and western blots of neonatal cardiomyocytes. (FIG. 2A) Results of a northern blot for SERCA2a mRNA in neonatal cardiomyocytes cultured for 72 hours with 5.5 mM (NG) or 25 mM (HG) glucose. Total RNA (15 μg) isolated from cultured myocytes was resolved using a denaturing agarose gel, transferred to a nylon membrane and probed with a full length ^32P-labeled probe corresponding to rat SERCA2a as described in “Experimental Procedures”. (FIG. 2B) Western immunoblot analysis of SERCA2a protein levels from neonatal cardiomyocytes exposed to 5.5 mM or 25 mM glucose in the presence and absence of 40 μM aminoguanidine (AG), 0.5 μg/ml tunicamycin (Tun), or 8 mM glucosamine (GlcN, 5.5 mM glucose group only). Crude lysates (30 μg) were resolved using 4-20% gradient SDS-PAGE gels, transferred to nylon membranes, and immunoblotted with a SERCA2a polyclonal antibody as described in “Experimental Procedures”. […] (C) SERCA2a protein levels based on Western immunoblots from adenovirus-infected neonatal cardiomyocytes.

[4] = test system: rat SERCA2a promoter; test: SERCA2a promoter luciferase assay in neonatal cardiomyocytes; assay type: cell-based; conditions: 5.5 mM glucose/8 mM glucosamine
Protocol: Transfections and SERCA2a Promoter Luciferase Assays. DNA transfection of neonatal cardiomyocytes was performed using the calcium phosphate-DNA co-precipitation method, see, e.g., Chen (1987) Mol. Cell. Biol 7:2745-2752. Cells (0.5×10^6) were transfected overnight in appropriate culture medium (either NG- or HG-containing medium) with 50 ng of either a 0.6 kb fragment of the rat SERCA2a promoter (corresponding to the 600 bases immediately upstream of the transcriptional start codon) (see, e.g., Rohrer (1991) J. Biol. Chem. 266:8638-8646) or a control plasmid (pGL3; Promega) and 3 μg of fill plasmid (pBS; Stratagene), then washed with PBS and changed into fresh culture medium. […] Transfected cells were incubated for 48 hours, then washed with PBS and incubated for 10 min with gentle agitation at RT in 200 μl of harvest buffer (50 mM MES/Tris pH 7.8, 0.1% Triton X-100, and 1.3 mM dithiothreitol). Luciferase activity was measured using 100 μl of extract in a luminometer.
The reduction in SERCA2a mRNA and protein expression observed following treatment of myocytes with high glucose prompted us to examine whether these effects were being exerted, at least in part, by interactions with the SERCA2a gene promoter. […] Crude cell lysates were incubated with luciferase substrate and relative light units were measured on a luminometer. […]

[5] = test system: MEF-2a; test: MEF-2a protein level by immunoblot of nuclear extracts of neonatal cardiomyocytes; assay type: cell-based, rat; conditions: 25 mM glucose; 5.5 mM glucose with 8 mM glucosamine; 25 mM glucose with adeno-OGT MOI 25
Protocol: To examine cellular O-GlcNAcylation and MEF-2a levels, nuclear extracts were prepared from neonatal cardiomyocytes (2×10^6) using modifications of the procedures described by Dignam (1983) Nucleic Acids Res. 11:1475-1489. Samples of each extract (25-50 μg) were fractionated by SDS-PAGE on precast 4-20% Tris-glycine gels (BioRad) and transferred to nylon membranes. Membranes were blocked overnight, exposed to the O-GlcNAc-specific antibody 110.6 (17) (1:10,000) overnight at 4° C., then exposed for 1 hour to 1:5,000 goat anti-mouse IgM-HRP. Alternatively, membranes were exposed to anti-MEF-2 (1:200) for one hour at RT followed by a one hour exposure to 1:10,000 goat anti-rabbit IgG-HRP. Visualization and quantification was as described above.
Nuclear extracts (50 μg) were prepared as described in “Experimental Procedures” above, resolved on 10% SDS-PAGE gels, transferred to nylon membranes and immunoblotted with anti-MEF2 antibody (Santa Cruz Biotech).

[6] = test system: CB6F1 mice; test: Blood glucose and cardiac UDP-sugar nucleotides in streptozocin-injected mice; assay type: in vivo, mouse; conditions: streptozocin 150 mg/kg intraperitoneal, three weeks
Protocol: Animals and Determination of Cardiac Sugar Nucleotides. Male CB6F1 mice weighing 20-25 g (Charles River, Wilmington, Mass.) were made diabetic using methods described previously, see, e.g., Trost (2002) supra. Briefly, diabetes was induced with a single intraperitoneal injection of streptozocin (150 mg/kg in citrate saline, pH 4.5) to animals fasted overnight (16 hrs). Diabetic animals were sacrificed three weeks following injection. To determine the degree of diabetes, blood was drawn via direct cardiac puncture in CO2-euthanized animals and plasma glucose concentration was determined using the Sigma Glucose Kit (510-A).
Sugar nucleotides were extracted from fresh ventricles and quantified by HPLC as described by Weckbecker (1983) Anal. Biochem. 132:405-412. Hearts were homogenized in 3 vols of ice-cold 0.3 M HClO4 and debris pelleted at 10,000×g for 15 min at 4° C. Two vols of 1:4 trioctylamine: 1,1,2-trichlorotrifluoroethane (Freon) were added to the supernatant, followed by vortexing for 30 sec and centrifuging at 1000×g for 5 min at 4° C. The aqueous phase was carefully transferred to a fresh tube and frozen at −80° C. until assayed. Samples were diluted in 0.5 ml H2O and desalted on a Mono-Q column (flow rate 1 ml/min). The combined UDP-GlcNAc/GalNAc fraction was collected as a peak at 23 minutes and the sample was lyophilized overnight. Dried samples were subsequently dissolved in borate solution (0.22 M boric acid, 0.09 M disodium tetraborate, and 1.2 M glycerol, pH 6.85), and separated into distinct UDP-GlcNAc and UDP-GalNAc peaks on a Partisil SAX-10 column. […]
Effects of STZ-induced diabetes on UDP-nucleotide levels. […] Blood was drawn via direct cardiac puncture and plasma [glucose] was subsequently determined using a Sigma Glucose kit. Sugar nucleotides were extracted immediately from hearts and quantitated using HPLC as described in “Experimental Procedures” above. […] Fractions were quantified by comparing total peak area with results from known concentrations of each sugar nucleotide.

CC(=O)N[C@H]1/C(=N/OC(=O)Nc2ccccc2)O[C@H](CO)[C@@H](O)[C@@H]1O [PUGNAc, O-(2-acetamido-2-deoxy-D-glucopyranosylidene)amino-N-phenyl carbamate]
time to achieve a 50% decrease in the calcium transient (T1/2) [1]: 1.31 ± 0.085 s | increase in diastolic calcium decay relative to controls [1]: 43% | overall levels of nuclear O-GlcNAcylation [2]: substantially increased

tunicamycin
influence on SERCA2a protein levels [3]: Neither aminoguanidine nor tunicamycin appeared to influence SERCA2a protein levels

N[C@H]1C(O)O[C@H](CO)[C@@H](O)[C@@H]1O (some centres unmarked) [glucosamine]
time to achieve a 50% decrease in the calcium transient (T1/2) [1]: 1.32 ± 0.061 s | increase in diastolic calcium decay relative to controls [1]: 43% | change in SERCA2a protein compared with controls ([3]; 5.5 mM glucose and 8 mM glucosamine): −25±3% | SERCA2a protein levels compared with myocytes exposed only to 5.5 mM glucose ([3]; 25 mM glucose and glucosamine): unchanged | reduction in SERCA2a promoter activity compared with normal glucose controls [4]: 33% | overall levels of nuclear O-GlcNAcylation [2]: substantially increased | decrease in MEF-2a expression levels compared with normal glucose controls [5]: 52%

N=C(N)NN [aminoguanidine]
influence on SERCA2a protein levels [3]: Neither aminoguanidine nor tunicamycin appeared to influence SERCA2a protein levels | apparent increase in SERCA2a vs controls ([3]; 25 mM glucose and 40 μM aminoguanidine, repeated trials): not statistically significant

OC[C@@H](O)[C@@H](O)[C@H](O)[C@H](O)CO [mannitol]
osmotic effect on SERCA2a protein levels ([3]; 5.5 mM glucose and 20 mM mannitol): nor did we observe any osmotic effect

CN(N=O)C(=O)N[C@@H](C=O)[C@@H](O)[C@H](O)[C@H](O)CO [STZ, streptozocin]
UDP-GalNAc in heart [6]: 0.51 ± 0.01 nmol | UDP-GlcNAc in heart [6]: 1.36 ± 0.03 nmol | blood glucose [6]: 969 ± 40 mg/dL
